According to the supplement of paper PMC10307832:

Assays:
Test in all cases: relative viability (nuclei count vs DMSO), 5 days (fraction); higher = more cells survive
TGX 221 + Palbociclib = compound: CC1=CN2C(=O)C=C(N=C2C(=C1)C(C)NC3=CC=CC=C3)N4CCOCC4 [TGX 221] + CC(=O)c1c(C)c2cnc(Nc3ccc(N4CCNCC4)cn3)nc2n(C2CCCC2)c1=O [Palbociclib] (partner 0.5 µM)
How it was run: (§1)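 Values are medians from duplicate plates. Each reflects relative viability, defined as the nuclei count of treated wells over that of vehicle wells. Lung cancer cell lines in 1536-well plates were pin-tool dosed one day after seeding with one drug alone or with a fixed anchor-drug dose plus five library-drug doses (not always all listed) in √10 steps, then fixed, stained and imaged at 4× after 5 days.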

TGX 221 + Linsitinib = compound: CC1=CN2C(=O)C=C(N=C2C(=C1)C(C)NC3=CC=CC=C3)N4CCOCC4 [TGX 221] + C[C@]1(O)C[C@@H](c2nc(-c3ccc4ccc(-c5ccccc5)nc4c3)c3c(N)nccn32)C1 [Linsitinib] (partner 1 µM)
How it was run: as §1

[1] = compound: O=C(CCCCCCNC(=O)c1cnc(N(c2ccccc2)c2ccccc2)nc1)NO [Ricolinostat] + C[C@]1(O)C[C@@H](c2nc(-c3ccc4ccc(-c5ccccc5)nc4c3)c3c(N)nccn32)C1 [Linsitinib] (partner 1 µM)
How it was run: as §1

TGX 221 + Vorinostat = compound: CC1=CN2C(=O)C=C(N=C2C(=C1)C(C)NC3=CC=CC=C3)N4CCOCC4 [TGX 221] + O=C(CCCCCCC(=O)Nc1ccccc1)NO [Vorinostat] (partner 1 µM)
How it was run: as §1

Cell Line | relative viability (TGX 221 + Palbociclib; first compound 0.08 µM) | relative viability (TGX 221 + Palbociclib; first compound 0.253 µM) | relative viability (TGX 221 + Palbociclib; first compound 0.8 µM) | relative viability (TGX 221 + Palbociclib; first compound 2.53 µM) | relative viability (TGX 221 + Palbociclib; first compound 8 µM) | relative viability (TGX 221 + Linsitinib; first compound 0.08 µM) | relative viability (TGX 221 + Linsitinib; first compound 0.253 µM) | relative viability (TGX 221 + Linsitinib; first compound 0.8 µM) | relative viability (TGX 221 + Linsitinib; first compound 2.53 µM) | relative viability (TGX 221 + Linsitinib; first compound 8 µM) | relative viability ([1]; first compound 0.08 µM) | relative viability ([1]; first compound 0.253 µM) | relative viability ([1]; first compound 0.8 µM) | relative viability ([1]; first compound 2.53 µM) | relative viability (TGX 221 + Vorinostat; first compound 0.08 µM) | relative viability (TGX 221 + Vorinostat; first compound 0.253 µM) | relative viability (TGX 221 + Vorinostat; first compound 0.8 µM) | relative viability (TGX 221 + Vorinostat; first compound 2.53 µM) | relative viability (TGX 221 + Vorinostat; first compound 8 µM)
HCC-15 | 0.497 | 0.663 | 0.718 | 0.635 | 0.724 | 0.893 | 0.86 | 0.878 | 0.845 | 0.827 | 0.847 | 0.866 | 0.938 | 0.834 | 0.753 | 0.787 | 0.977 | 0.839 | 0.787
HCC-44 | 1.02 | 1.01 | 1 | 0.933 | 0.991 | 0.646 | 0.53 | 0.62 | 0.464 | 0.359 | 0.575 | 0.682 | 0.589 | 0.545 | 1.12 | 1.22 | 1.17 | 1.17 | 1.21
HCC-78 | – | 0.428 | 0.464 | 0.397 | 0.435 | 0.464 | 0.409 | – | 0.213 | 0.215 | – | 0.551 | 0.417 | 0.271 | 0.518 | 0.449 | 0.428 | 0.338 | 0.362
HCC-366 | 0.387 | 0.358 | 0.418 | 0.368 | 0.297 | 0.673 | 0.434 | 0.598 | 0.545 | 0.291 | 0.454 | 0.67 | 0.478 | 0.454 | 0.357 | 0.327 | 0.365 | 0.292 | 0.351
HCC-827 | 0.489 | 0.468 | 0.487 | 0.436 | 0.425 | 0.999 | 1.05 | 0.94 | 0.986 | 0.886 | 0.896 | 0.91 | 0.966 | 1.02 | 0.777 | 0.922 | 0.888 | 0.891 | 0.852
HOP-62 | 0.429 | 0.449 | 0.484 | 0.509 | 0.43 | 1.06 | 1.09 | 1.02 | 1.01 | 0.889 | 1.03 | 0.991 | 0.943 | 0.644 | 0.57 | 0.581 | 0.667 | 0.521 | 0.542
IA-LM | – | – | – | – | – | 0.685 | 0.509 | 0.58 | 0.621 | 0.685 | 0.335 | 0.529 | 0.594 | 0.259 | – | 0.981 | 1.01 | 0.827 | 0.941
LC-2-ad | 0.478 | 0.519 | 0.483 | 0.503 | 0.447 | 0.786 | – | 0.731 | 0.668 | 0.595 | 0.799 | 0.834 | 0.825 | 0.684 | 0.676 | 0.682 | 0.761 | 0.71 | 0.67
LCLC-97TM1 | 0.184 | 0.263 | 0.238 | 0.206 | 0.232 | 0.145 | 0.187 | 0.199 | 0.167 | 0.188 | 0.171 | 0.199 | 0.231 | 0.172 | 0.819 | 0.459 | 0.856 | 0.615 | 0.847
NCI-H522 | 0.941 | 1.01 | 0.929 | 0.944 | 0.815 | – | – | – | – | – | – | – | – | – | 0.976 | 0.822 | 0.883 | 0.831 | 0.826
NCI-H596 | – | – | – | – | – | 1.13 | 0.913 | 0.972 | 0.972 | 0.985 | 1.09 | 1.05 | 1 | 1.09 | 0.571 | 0.588 | 0.685 | 0.494 | 0.524
NCI-H1299 | – | – | – | – | – | 0.976 | 1.04 | 1.04 | 0.902 | 0.969 | 0.984 | 0.898 | 0.959 | 0.74 | – | – | – | – | –
NCI-H1563 | – | – | – | – | – | 1.2 | 1.2 | 0.909 | 0.868 | 0.755 | 1.19 | 1.12 | 1.08 | 0.982 | – | – | – | – | –
NCI-H1648 | – | 0.247 | 0.231 | 0.25 | 0.273 | – | – | – | – | – | – | – | – | – | – | 0.295 | 0.651 | 0.395 | 0.421
NCI-H1650 | 0.305 | 0.298 | 0.294 | 0.257 | 0.191 | – | – | – | – | – | – | – | – | – | 0.482 | 0.478 | 0.521 | 0.676 | 0.48
NCI-H1703 | – | – | – | – | – | 0.678 | 0.522 | 0.48 | 0.487 | 0.636 | – | 0.669 | 0.774 | 0.956 | – | – | – | – | –
NCI-H2170 | 0.332 | 0.423 | 0.393 | 0.365 | 0.334 | – | – | – | – | – | – | – | – | – | 0.754 | 0.758 | 0.767 | 0.759 | 0.831
NCI-H2342 | 0.541 | 0.529 | 0.492 | 0.517 | 0.531 | – | – | – | – | – | – | – | – | – | 0.697 | 0.711 | 0.836 | 0.804 | 0.793
SW 900 | – | 0.429 | 0.427 | 0.356 | 0.295 | – | – | – | – | – | – | – | – | – | – | 0.473 | 0.403 | 0.37 | 0.505
